US20230355618A1, “RAF INHIBITOR FOR TREATING LOW GRADE GLIOMA” (Day One Biopharmaceuticals, Inc., priority 2020, published 2023)

Tests used:
[1] = Phase 1 pediatric dose-escalation trial: pharmacokinetic studies (exposure, AUC0-∞); format: in vivo, human; conditions: for AUC(0-inf): human, plasma, oral
Experimental: (§1) A 3+3 design is used. Based on the adult dose of 350 mg/m^2 by mouth every week (using a typical adult BSA of 1.7 m^2), the starting dose for the pediatric study was 80% of the adult RP2D, which was 280 mg/m^2 by mouth every week. Doses were escalated in an inter-patient stepwise fashion until dose-limiting toxicities (DLTs) were observed. The three different dose levels: 280 mg/m^2, 350 mg/m^2, and […].
(§2) Treatment began at 80% of the adult dose (i.e., 280 mg/m^2 by mouth once weekly based on the following calculation: • An adult dose of 600 mg once weekly and an average adult BSA (m^2) of 1.73 m^2=350 mg/m^2 • 80% of 350 mg/m^2=280 mg/m^2 starting dose
(§3) The dose escalation scheme is described in Table 1-A. The initial phase included 3 dose escalation levels to a maximum of 530 mg/m^2/dose weekly.
Pharmacokinetic studies were performed on all patients in the phase I component of the trial as venous access allowed. The initial phase 1 included 3 dose escalation levels to a maximum of 530 mg/m^2/dose weekly. PK studies were also conducted to evaluate phosphorylated ERK in the peripheral blood mononuclear cells.

[2] = test system: pediatric low grade glioma (pLGG); assay: Phase 1 pediatric dose-escalation trial: tumor response by RANO criteria; format: in vivo, human; conditions: for Best RANO Response (T1-Gad): pLGG
Experimental: as §1, §2, §3
FIG. 2 illustrates Phase 1 trial data of these nine individual pediatric LGG (pLGG) patient responses to Compound A over time. […] The median time to response was 10.5 weeks. Two patients achieved a complete response that was maintained throughout the dosing period of up to two years.
Two of eight patients with a RAF fusion had prolonged stable disease.

[3] = pLGG patients with a RAF fusion, Phase 1

C[C@@H](NC(=O)c1ncnc(N)c1Cl)c1ncc(C(=O)Nc2cc(C(F)(F)F)c(Cl)cn2)s1 [Compound A, (R)-2-(1-(6-amino-5-chloropyrimidine-4-carboxamido)ethyl)-N-(5-chloro-4-(trifluoromethyl)pyridin-2-yl)thiazole-5-carboxamide]
Dose normalized AUC0-∞ ([1]; Subject-1 (PNOC014-01), predicted exposure at 530 mg/m^2 (predicted dose 456, 21 mg/kg), original dose cohort 280 mg/m^2): 1268 µg·h/L
Dose normalized AUC0-∞ ([1]; Subject-2 (PNOC014-02), predicted exposure at 530 mg/m^2 (predicted dose 530, 19 mg/kg), original dose cohort 280 mg/m^2): 682 µg·h/L
Dose normalized AUC0-∞ ([1]; Subject-3 (PNOC014-03), predicted exposure at 530 mg/m^2 (predicted dose 419, 23 mg/kg), original dose cohort 280 mg/m^2): 614 µg·h/L
Dose normalized AUC0-∞ ([1]; Subject-4 (PNOC014-04), predicted exposure at 530 mg/m^2 (predicted dose 906, 13 mg/kg), original dose cohort 350 mg/m^2): 705 µg·h/L
Dose normalized AUC0-∞ ([1]; Subject-5 (PNOC014-05), predicted exposure at 530 mg/m^2 (predicted dose 906, 14 mg/kg), original dose cohort 350 mg/m^2): 653 µg·h/L
Dose normalized AUC0-∞ ([1]; Subject-6 (PNOC014-06), predicted exposure at 530 mg/m^2 (predicted dose 848, 16 mg/kg), original dose cohort 350 mg/m^2): 640 µg·h/L
Dose normalized AUC0-∞ ([1]; Subject-7 (PNOC014-07), predicted exposure at 530 mg/m^2 (predicted dose 784, 15 mg/kg), original dose cohort 420 mg/m^2): 701 µg·h/L
Dose normalized AUC0-∞ ([1]; Subject-9 (PNOC014-09), predicted exposure at 530 mg/m^2 (predicted dose 376, 24 mg/kg), original dose cohort 420 mg/m^2): 1122 µg·h/L
AUC(0-inf) ([1]; 280 mg/m^2, Subject-1 (PNOC014-01), 21.9 kg, BSA 0.86 m^2, dose cohort 280 mg/m^2 by mouth once weekly, dose given 240 mg (11.0 mg/kg)): 670 ng·h/mL
AUC(0-inf) ([1]; 280 mg/m^2, Subject-2 (PNOC014-02), 28.2 kg, BSA 1.0 m^2, dose cohort 280 mg/m^2 by mouth once weekly, dose given 280 mg (9.9 mg/kg)): 361 ng·h/mL
AUC(0-inf) ([1]; 280 mg/m^2, Subject-3 (PNOC014-03), 18.1 kg, BSA 0.79 m^2, dose cohort 280 mg/m^2 by mouth once weekly, dose given 220 mg (12.2 mg/kg)): 324 ng·h/mL
AUC(0-inf) ([1]; 350 mg/m^2, Subject-4 (PNOC014-04), 69.6 kg, BSA 1.71 m^2, dose cohort 350 mg/m^2 by mouth once weekly, dose given 600 mg (8.6 mg/kg)): 466 ng·h/mL
AUC(0-inf) ([1]; 350 mg/m^2, Subject-5 (PNOC014-05), 66.5 kg, BSA 1.71 m^2, dose cohort 350 mg/m^2 by mouth once weekly, dose given 600 mg (9.0 mg/kg)): 431 ng·h/mL
AUC(0-inf) ([1]; 350 mg/m^2, Subject-6 (PNOC014-06), 53.6 kg, BSA 1.6 m^2, dose cohort 350 mg/m^2 by mouth once weekly, dose given 560 mg (10.4 mg/kg)): 423 ng·h/mL
AUC(0-inf) ([1]; 420 mg/m^2, Subject-7 (PNOC014-07), 53.7 kg, BSA 1.48 m^2, dose cohort 420 mg/m^2 by mouth once weekly, dose given 620 mg (11.5 mg/kg)): 556 ng·h/mL
AUC(0-inf) ([1]; 420 mg/m^2, Subject-9 (PNOC014-09), 15.6 kg, BSA 0.71 m^2, dose cohort 420 mg/m^2 by mouth once weekly, dose given 300 mg (19.2 mg/kg)): 889 ng·h/mL
patients who did not respond ([2]; NF1-associated pLGG, Phase 1): One
Best RANO Response (T1-Gad) ([2]; Subject-1 (PNOC014-01), BSA 0.86 m^2, dose cohort 280 mg/m^2 once weekly): CR (CR = −100%)
Best RANO Response (T1-Gad) ([2]; Subject-2 (PNOC014-02), BSA 1.0 m^2, dose cohort 280 mg/m^2 once weekly): PR (PR = −50% or more reduction from baseline)
Best RANO Response (T1-Gad) ([2]; Subject-3 (PNOC014-03), BSA 0.79 m^2, dose cohort 280 mg/m^2 once weekly): PR (PR = −50% or more reduction from baseline)
Best RANO Response (T1-Gad) ([2]; Subject-4 (PNOC014-04), BSA 1.71 m^2, dose cohort 350 mg/m^2 once weekly): PD (PD = ≥25% growth from nadir)
Best RANO Response (T1-Gad) ([2]; Subject-5 (PNOC014-05), BSA 1.71 m^2, dose cohort 350 mg/m^2 once weekly): SD (SD = between −50% and +25%)
Best RANO Response (T1-Gad) ([2]; Subject-6 (PNOC014-06), BSA 1.6 m^2, dose cohort 350 mg/m^2 once weekly): PD (PD = ≥25% growth from nadir)
Best RANO Response (T1-Gad) ([2]; Subject-7 (PNOC014-07), BSA 1.48 m^2, dose cohort 420 mg/m^2 once weekly): SD (SD = between −50% and +25%)
Best RANO Response (T1-Gad) ([2]; Subject-9 (PNOC014-09), BSA 0.71 m^2, dose cohort 420 mg/m^2 once weekly): PR (PR = −50% or more reduction from baseline)
patients achieving a complete response maintained throughout the dosing period of up to two years ([2]; nine pLGG patients, Phase 1): Two
patients achieving prolonged stable disease ([2]; nine pLGG patients, Phase 1): two
patients who did not achieve a response ([2]; nine pLGG patients, Phase 1): two
patients with a partial response ([2]; nine pLGG patients, Phase 1): Three
patients with shrinkage in lesion size in the first radiologic images after initiation of dosing ([2]; nine pLGG patients, Phase 1): six of nine
median time to response ([2]; nine pLGG patients, Phase 1, 280-420 mg/m^2 once weekly): 10.5 weeks
patients who did not respond [2, 3]: One
patients with complete or partial response per RANO criteria (≥50% decrease compared with baseline) [2, 3]: Five of the eight
patients with prolonged stable disease [2, 3]: Two of eight
